The text below walks through data of patent US10717716B2, “1,3,4-oxadiazole derivative compounds as histone deacetylase 6 inhibitor, and the pharmaceutical composition comprising the same” (Chong Kun Dang Pharmaceutical Corp., priority 2015, dated 2020).

Test [1] concerns the target T1, human recombinant HDAC1 (Homo sapiens, UniProt Q13547).
T1 construct: purchased Enzo Life Science BML-SE456
Nature of the test: HDAC1 enzyme activity inhibition assay (HDAC Fluorimetric Drug Discovery Kit). The class given is biochemical. The note with it: human recombinant HDAC1, Fluor de Lys substrate 10 μM, 30° C. 60 minutes. Summed up:
(§1)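 Fluorimetric deacetylase assay: 5-fold serial compound dilutions, 0.3 μg recombinant human enzyme (HDAC1 or HDAC6, same protocol), 10 μM Fluor de Lys-SIRT1 substrate, 60 min at 30 °C. Signal developed 30 min, measured at 360/460 nm; IC50 values derived.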

Test [2] has as its target T2, human recombinant HDAC6 (Homo sapiens, UniProt Q9UBN7).
T2 construct: purchased Calbiochem 382180
T2 sequence (Q9UBN7 1-1215): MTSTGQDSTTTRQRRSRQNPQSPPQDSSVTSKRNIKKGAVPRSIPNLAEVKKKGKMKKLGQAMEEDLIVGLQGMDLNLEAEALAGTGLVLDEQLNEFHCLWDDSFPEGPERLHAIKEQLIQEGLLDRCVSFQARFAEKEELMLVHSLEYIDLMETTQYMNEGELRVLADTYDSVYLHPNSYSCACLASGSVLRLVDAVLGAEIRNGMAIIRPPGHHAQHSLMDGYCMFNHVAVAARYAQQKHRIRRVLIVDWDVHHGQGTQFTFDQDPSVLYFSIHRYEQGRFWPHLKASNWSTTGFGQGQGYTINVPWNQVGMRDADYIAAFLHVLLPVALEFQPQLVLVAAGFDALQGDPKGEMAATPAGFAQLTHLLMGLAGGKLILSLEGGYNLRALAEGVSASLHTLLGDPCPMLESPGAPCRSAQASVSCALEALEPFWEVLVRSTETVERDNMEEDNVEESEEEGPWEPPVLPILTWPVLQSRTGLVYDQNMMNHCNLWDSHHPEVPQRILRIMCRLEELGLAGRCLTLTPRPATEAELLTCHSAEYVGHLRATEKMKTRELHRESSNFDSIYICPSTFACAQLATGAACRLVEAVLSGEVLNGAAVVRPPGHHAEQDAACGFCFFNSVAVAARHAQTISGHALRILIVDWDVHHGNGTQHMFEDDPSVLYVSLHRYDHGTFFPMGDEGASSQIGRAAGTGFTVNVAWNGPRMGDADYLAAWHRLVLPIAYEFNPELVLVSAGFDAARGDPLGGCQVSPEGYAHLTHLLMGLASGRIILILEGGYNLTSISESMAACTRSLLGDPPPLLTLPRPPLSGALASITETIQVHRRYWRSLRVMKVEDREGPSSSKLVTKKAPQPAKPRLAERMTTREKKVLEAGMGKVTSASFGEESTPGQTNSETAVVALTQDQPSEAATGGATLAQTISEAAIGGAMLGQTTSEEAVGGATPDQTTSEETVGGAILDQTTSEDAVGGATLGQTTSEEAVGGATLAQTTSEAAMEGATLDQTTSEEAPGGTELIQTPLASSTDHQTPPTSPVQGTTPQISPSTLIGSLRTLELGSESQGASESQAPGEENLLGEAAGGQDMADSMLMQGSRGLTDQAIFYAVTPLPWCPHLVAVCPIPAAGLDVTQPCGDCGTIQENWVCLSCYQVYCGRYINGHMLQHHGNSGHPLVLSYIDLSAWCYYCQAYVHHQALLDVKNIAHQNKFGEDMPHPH
As to the kind of experiment: HDAC6 enzyme activity inhibition assay (HDAC Fluorimetric Drug Discovery Kit). The class given is biochemical. The note with it: for HDAC6 selectivity (fold): HDAC6 over HDAC1; for IC50: human recombinant HDAC6, same protocol as HDAC1, read-out: HDAC6. Summed up:
as §1

T1 sequence (Q13547 whole entry): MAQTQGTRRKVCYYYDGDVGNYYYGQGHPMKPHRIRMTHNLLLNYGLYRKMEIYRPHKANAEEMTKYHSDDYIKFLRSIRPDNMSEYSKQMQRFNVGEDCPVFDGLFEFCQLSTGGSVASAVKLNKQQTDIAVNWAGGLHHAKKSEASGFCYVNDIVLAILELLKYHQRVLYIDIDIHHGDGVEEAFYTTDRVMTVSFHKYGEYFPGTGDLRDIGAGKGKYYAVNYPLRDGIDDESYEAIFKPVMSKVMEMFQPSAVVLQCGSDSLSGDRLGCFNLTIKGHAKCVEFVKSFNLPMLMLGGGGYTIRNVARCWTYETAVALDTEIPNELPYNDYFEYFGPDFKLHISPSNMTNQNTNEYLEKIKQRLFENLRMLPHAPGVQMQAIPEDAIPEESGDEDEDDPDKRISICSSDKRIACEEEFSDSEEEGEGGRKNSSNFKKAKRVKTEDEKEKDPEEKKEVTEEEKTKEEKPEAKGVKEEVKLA

Take `CN1CCN(C(=O)N(Cc2ccc(-c3nnc(C(F)F)o3)cc2F)c2ccc3cnn(C)c3c2)CC1` [Compound 21654, N-(4-(5-(difluoromethyl)-1,3,4-oxadiazol-2-yl)-2-fluorobenzyl)-4-methyl-N-(1-methyl-1H-indazol-6-yl)piperazine-1-carboxamide]: in test [1], the IC50 came out at 18.8 µM. For the same molecule, in test [2], the “HDAC6 selectivity (fold)” value is recorded as 1518 fold and the IC50 was found to be 0.012 µM.

For the molecule `CCN1CCN(C(=O)N(Cc2ccc(-c3nnc(C(F)F)o3)cc2F)c2ccc(F)c(Br)c2)CC1` [Compound 21656, N-(3-bromo-4-fluorophenyl)-N-(4-(5-(difluoromethyl)-1,3,4-oxadiazol-2-yl)-2-fluorobenzyl)-4-ethylpiperazine-1-carboxamide], the results for the IC50 in test [1] and in test [2] were 36.5 µM and 0.033 µM, respectively. In test [2], the “HDAC6 selectivity (fold)” value came out at 1122 fold.

As to `CCN1CCN(C(=O)N(Cc2ccc(-c3nnc(C(F)(F)F)o3)cc2F)c2ccc(F)c(Br)c2)CC1` [Compound 21658, N-(3-bromo-4-fluorophenyl)-4-ethyl-N-(2-fluoro-4-(5-(trifluoromethyl)-1,3,4-oxadiazol-2-yl)benzyl)piperazine-1-carboxamide], in test [1], the IC50 stood at 8.44 µM. Also, in test [2], the “HDAC6 selectivity (fold)” value is listed as 59 fold and the IC50 amounted to 0.144 µM.

Turning to `CCN1CCN(C(=O)N(Cc2ccc(-c3nnc(C(F)(F)F)o3)cc2F)c2cccc(F)c2F)CC1` [Compound 21659, N-(2,3-difluorophenyl)-4-ethyl-N-(2-fluoro-4-(5-(trifluoromethyl)-1,3,4-oxadiazol-2-yl)benzyl)piperazine-1-carboxamide], the IC50 in test [1] was found to be 15.7 µM. In test [2], the “HDAC6 selectivity (fold)” value is 153 fold and the IC50 came to 0.102 µM.

For `CCN1CCN(C(=O)N(Cc2ccc(-c3nnc(C(F)(F)F)o3)cc2F)c2ccc(C)c(Cl)c2)CC1` [Compound 21660, N-(3-chloro-4-methylphenyl)-4-ethyl-N-(2-fluoro-4-(5-(trifluoromethyl)-1,3,4-oxadiazol-2-yl)benzyl)piperazine-1-carboxamide], in test [1], the IC50 was 24.8 µM. Moreover, in test [2], the “HDAC6 selectivity (fold)” value came to 80 fold and the IC50 came to 0.309 µM.

Take `O=C(N1CC[C@@H](O)C1)N(Cc1ccc(-c2nnc(C(F)(F)F)o2)cc1F)c1ccc(F)c(Cl)c1` [Compound 21664, (R)—N-(3-chloro-4-fluorophenyl)-N-(2-fluoro-4-(5-(trifluoromethyl)-1,3,4-oxadiazol-2-yl)benzyl)-3-hydroxypyrrolidine-1-carboxamide]: the values for the IC50 in test [1] and in test [2] were 17.1 µM and 0.151 µM, respectively. Further, in test [2], the “HDAC6 selectivity (fold)” value is 114 fold.

As for `O=C(N1CC[C@H](F)C1)N(Cc1ccc(-c2nnc(C(F)F)o2)cc1F)c1ccc(F)c(Cl)c1` [Compound 21665, (S)—N-(3-chloro-4-fluorophenyl)-N-(4-(5-(difluoromethyl)-1,3,4-oxadiazol-2-yl)-2-fluorobenzyl)-3-fluoropyrrolidine-1-carboxamide], the IC50 in test [1] came out at 19.1 µM. In test [2], the “HDAC6 selectivity (fold)” value was found to be 917 fold and the IC50 came out at 0.021 µM.

In the case of `O=C(N1CC[C@H](F)C1)N(Cc1ccc(-c2nnc(C(F)(F)F)o2)cc1F)c1ccc(F)c(Cl)c1` [Compound 21666, (S)—N-(3-chloro-4-fluorophenyl)-3-fluoro-N-(2-fluoro-4-(5-(trifluoromethyl)-1,3,4-oxadiazol-2-yl)benzyl)pyrrolidine-1-carboxamide], in test [1], the IC50 amounted to 20.5 µM. Moreover, in test [2], the “HDAC6 selectivity (fold)” value is recorded as 55 fold and the IC50 is 0.374 µM.

As for `O=C(N1CCC(F)(F)C1)N(Cc1ccc(-c2nnc(C(F)F)o2)cc1F)c1ccc(F)c(Cl)c1` [Compound 21667, N-(3-chloro-4-fluorophenyl)-N-(4-(5-(difluoromethyl)-1,3,4-oxadiazol-2-yl)-2-fluorobenzyl)-3,3-difluoropyrrolidine-1-carboxamide], in test [1], the IC50 is 20.1 µM. For the same molecule, in test [2], the “HDAC6 selectivity (fold)” value is given as 485 fold and the IC50 worked out at 0.041 µM.

As for `O=C(N1CCC(F)(F)C1)N(Cc1ccc(-c2nnc(C(F)(F)F)o2)cc1F)c1ccc(F)c(Cl)c1` [Compound 21668, N-(3-chloro-4-fluorophenyl)-3,3-difluoro-N-(2-fluoro-4-(5-(trifluoromethyl)-1,3,4-oxadiazol-2-yl)benzyl)pyrrolidine-1-carboxamide], the IC50 in test [1] is 10.4 µM. For the same molecule, in test [2], the “HDAC6 selectivity (fold)” value came out at 41 fold and the IC50 was 0.253 µM.

With `O=C(N1CCN(CCO)CC1)N(Cc1ccc(-c2nnc(C(F)(F)F)o2)cc1F)c1ccc(F)c(Cl)c1` [Compound 21669, N-(3-chloro-4-fluorophenyl)-N-(2-fluoro-4-(5-(trifluoromethyl)-1,3,4-oxadiazol-2-yl)benzyl)-4-(2-hydroxyethyl)piperazine-1-carboxamide], the figures for the IC50 in test [1] and in test [2] were 7.47 µM and 0.164 µM, respectively. Moreover, the “HDAC6 selectivity (fold)” value in test [2] turned out to be 46 fold.

As to `O=C(N1CCN(CCO)CC1)N(Cc1ccc(-c2nnc(C(F)F)o2)cc1F)c1ccc(F)c(Cl)c1` [Compound 21679, N-(3-chloro-4-fluorophenyl)-N-(4-(5-(difluoromethyl)-1,3,4-oxadiazol-2-yl)-2-fluorobenzyl)-4-(2-hydroxyethyl)piperazine-1-carboxamide], the IC50 in test [1] was 23.2 µM; in test [2] it was 0.034 µM. In addition, in test [2], the “HDAC6 selectivity (fold)” value turned out to be 675 fold.

For the molecule `CN1CCN(C(=O)N(Cc2ccc(-c3nnc(C(F)F)o3)cc2F)c2cccc3c2cnn3C)CC1` [Compound 21709, N-(4-(5-(difluoromethyl)-1,3,4-oxadiazol-2-yl)-2-fluorobenzyl)-4-methyl-N-(1-methyl-1H-indazol-4-yl)piperazine-1-carboxamide], the IC50 in test [1] came to 58.5 µM. Besides, in test [2], the “HDAC6 selectivity (fold)” value turned out to be 2255 fold and the IC50 is 0.026 µM.

On to `Cn1ncc2c(N(Cc3ccc(-c4nnc(C(F)F)o4)cc3F)C(=O)N3CCS(=O)(=O)CC3)cccc21` [Compound 21710, N-(4-(5-(difluoromethyl)-1,3,4-oxadiazol-2-yl)-2-fluorobenzyl)-N-(1-methyl-1H-indazol-4-yl)thiomorpholine-4-carboxamide 1,1-dioxide], for which the IC50 in test [1] worked out at 67.7 µM. Also, in test [2], the “HDAC6 selectivity (fold)” value worked out at 2651 fold and the IC50 worked out at 0.026 µM.

Regarding `Cn1ncc2ccc(N(Cc3ccc(-c4nnc(C(F)F)o4)cc3F)C(=O)N3CCOCC3)cc21` [Compound 21724, N-(4-(5-(Difluoromethyl)-1,3,4-oxadiazol-2-yl)-2-fluorobenzyl)-N-(1-methyl-1H-indazol-6-yl)morpholine-4-carboxamide], in test [1], the IC50 was 20.7 µM. Further, in test [2], the “HDAC6 selectivity (fold)” value came to 736 fold and the IC50 was 0.028 µM.

`CCN1CCN(C(=O)N(Cc2ccc(-c3nnc(C(F)F)o3)cc2F)c2ccc3cnn(C)c3c2)CC1` [Compound 21735, N-(4-(5-(difluoromethyl)-1,3,4-oxadiazol-2-yl)-2-fluorobenzyl)-4-ethyl-N-(1-methyl-1H-indazol-6-yl)piperazine-1-carboxamide]: the IC50 in test [1] turned out to be 19.1 µM. Further, in test [2], the “HDAC6 selectivity (fold)” value was 662 fold and the IC50 is 0.029 µM.

As for `CN(C)[C@@H]1CCN(C(=O)N(Cc2ccc(-c3nnc(C(F)F)o3)cc2F)c2ccc3cnn(C)c3c2)C1` [Compound 21736, (R)—N-(4-(5-(difluoromethyl)-1,3,4-oxadiazol-2-yl)-2-fluorobenzyl)-3-(dimethylamino)-N-(1-methyl-1H-indazol-6-yl)pyrrolidine-1-carboxamide], the IC50 in test [1] amounted to 17.7 µM. For the same molecule, in test [2], the “HDAC6 selectivity (fold)” value amounted to 432 fold and the IC50 worked out at 0.041 µM.

As to `O=C(N1CCS(=O)(=O)CC1)N(Cc1ccc(-c2nnc(C(F)F)o2)cc1F)c1ccccc1F` [Compound 21808, N-(4-(5-(difluoromethyl)-1,3,4-oxadiazol-2-yl)-2-fluorobenzyl)-N-(2-fluorophenyl)thiomorpholine-4-carboxamide 1,1-dioxide], the IC50 in test [1] was determined as 42.6 µM. In test [2], the “HDAC6 selectivity (fold)” value is on record as 2023 fold and the IC50 was 0.021 µM.
